For the assay, the system named is MC38 tumors. Kind of assay: CD8+ T cell / NK cell depletion in MC38 syngeneic model. It counts as in vivo, C57BL/6 mice. The text has this: To further establish whether the inhibitory effects of M029 on tumor progression could be attributable to enhanced antitumor immune responses, we treated MC38 tumors in nude mice. […] To evaluate the importance of CD8^+ T and NK cells in M029‐induced antitumor activity, we induced CD8^+ T cell or NK cell depletion in the MC38 syngeneic model using anti‐CD8 or anti‐NK1.1 antibodies as described in Figure 6c. […] These findings are consistent with the known role of SHP1 in T cells and with our in vitro data that indicate M029 enhances T cell activation with no direct effect on tumor cells. […] These findings align with previous reports that activated CD8^+ T cells recruit NK cells to tumors through releasing cytokines and chemokines like IFN‐γ.^[ [92] ^] The observed changes in immune activity induced by M029, such as increased tumor infiltration of cytotoxic CD8^+ T cells, enhanced T cell cytotoxicity and effector function, as well as improved NK cell infiltration and activation, collectively contribute to the anticancer effects exerted by M029 treatment.
Figure 6 Cytotoxic T‐cell activity is necessary for M029 antitumor activity. […] C57BL/6 mice were injected with anti‐CD8 or anti‐NK1.1 antibodies every 3–4 days for 8 days after tumor inoculation. Mice were orally dosed with M029 or control vehicle every day for 10 days after tumor inoculation at the same time (Control, n = 4; M029, n = 6; M029 + anti‐NK1.1, n = 6; M029 + anti‐CD8, n = 6). […] This difference implied that the CD8^+ T cells were critical to induce the NK cell infiltration in M029‐treated mice, and the depletion of CD8^+ T cells diminished M029's efficacy because of the absence of activated T cells and infiltrated NK cells. Statistical analyses were performed with Graphpad Prism software 10.4.2 through the student t test or the one‐way ANOVA test using Turkey post‐hoc comparison. *p < 0.05, **p < 0.01, ***p < 0.001, and ****p < 0.0001 were considered significant. Figures are plotted as average ± standard error of the mean (SEM).
Figure S6. Representative flow cytometry results of CD8^+ T/NK cell depletion studies. In the control group and the M029-treated group, CD8^+ T cells make up ~7% of immune cells and NK cells make up ~2% of immune cells. For mice treated with anti-NK1.1 antibody, the NK cell population is negligible (<0.1%). For mice treated with anti-CD8^+ antibody, the CD8^+ T cell population dropped to ~0.1%.
For immune cell profiling in the tumor microenvironment, tumor samples were first reduced to single-cell suspensions by compressing the tumors through a 70 µm filter (Falcon, #352350) into cold 1× PBS supplemented with 5 mM EDTA using the plunger of a syringe (HSW, #4010-200V0). Samples were strained through a second filter and then re-suspended in cold blocking buffer made of 5% BSA, 0.5 mM EDTA, and a 1:1000 dilution of CD16/32. Samples were then incubated with following fluorophore-conjugated antibodies. […]

“Also recorded” adds a separate entry of the source.

For `N#Cc1ccsc1NS(=O)(=O)c1ccc(NC(=O)CCl)cc1` [M029, 2-Chloro-N-(4-(N-(3-cyanothiophen-2-yl)sulfamoyl)phenyl)acetamide], the “M029-induced NK cell tumor infiltration after CD8+ T cell depletion” value (M029 + anti-CD8) was “abolishment of the increase in NK cell tumor infiltration”. Under “flow cytometry, Figure S6”, the “CD8+ T cell population of immune cells” value is reported as ~ 7% and the “NK cell population of immune cells” value is reported as ~ 2%. Besides, the “antitumor efficacy in CD8+ T-cell-depleted mice” value (oral M029 + anti-CD8) was “no antitumor efficacy; also recorded: completely abolished”. Besides, where the note is “oral M029 + anti-NK1.1”, the “antitumor effects in NK cell-depleted mice” value is given as “remained unaffected; also recorded: did not impact”.

(Values after article PMC12833730, “Discovery of a First‐in‐Class Covalent Allosteric SHP1 Inhibitor with Immunotherapeutic Activity” (Angewandte Chemie (International Ed. in English), 2025).)
